Where two headings read alike, the source gives them in different places.
Columns and labels:
[1] = test system: rat urinary bladder; test: Urodynamic parameters (cystometry) in the anesthetized rat; format: in vivo; details: for mean volume of micturition / number of micturitions / volume for the first micturition: anesthetized rat, iv, duloxetine 1 mg/kg, cizolirtine 10 mg/kg, N-desmethyl metabolite 10 mg/kg, vs control vehicle, FIG. 3
Procedure: Rat urinary bladder was catheterized. A pressure transducer was used to measure intavesical pressure in anesthetized rats treated with 1 mg/kg duloxetine, 10 mg/kg cizolirtine, 10 mg/kg N-desmethyl metabolite or a control vehicle. Recordings were made of the infusion volume, pressure needed for micturition, number of micturitions during the infusion.
An infusion pump was used to fill bladder with saline until micturition. After stabilization, treatment compounds or control vehicle were administered by iv. Fifteen minutes after administration, saline infusion was started and urodynamic parameters were again analyzed. The number of micturitions, volume for first micturition, mean volume for micturition, and AUC of intravesical pressure were measured for each of the treatment groups and compared to the control.
(§1) This is performed on Sprague-Dawley male and female anaesthetized rats. Left carotid artery is inserted with a catheter for the continuous measure of systemic arterial pressure and cardiac frequency. After an incision to the abdomen, a catheter is inserted on the bladder and connected to a pressure transducer and to an infusion pump. The urethra is ligated and the bladder is voided. After stabilization period, saline solution is infused (0.9 % NaC1solution at 5 ml/h rate) and the basal parameters of intravesical pressure are measured for 20 min. Cystometry parameters are the infusion volume and pressure needed to activate the micturition reflex, and the micturition frequency. After stabilization period, the compounds are administered i.v. and, 15 min. later, saline is infused and urodynamic parameters are measured again to compare with basal.

[2] = test system: acetic acid-induced bladder hyperactivity; test: Protection against acetic acid-induced bladder hyperactivity in the anesthetized rat; format: in vivo; details: for protection of the rat bladder against the acetic acid-induced hyperactivity: cizolirtine 5, 10 mg/kg i.v.; for protection of the rat bladder against the acetic acid-induced hyperactivity / number of micturitions / volume for the first micturition: duloxetine 1 mg/kg; for number of micturitions / volume for the first micturition: cizolirtine 5 and 10 mg/kg, vs control, FIG. 4
Procedure: (a) Protection Against Acetic Acid-induced Hyperactivity: Urodynamic Parameters
Anesthetized rat bladders were treated with […], […] and 1 mg/kg duloxetine, […] and 5 mg/kg cizolirtine, […] and 10 mg/kg cizolirtine, or […] and 10 mg/kg N-desmethyl metabolite. The number of micturitions, the volume for first micturition, micturition volume, intravesical pressure increase, and AUC of intravesical pressure were measured for each of the treatment groups and the control.
as §1
Further the effect on acetic acid-induced bladder hiperactivity is tested.

[3] = test system: aversive situation-induced immobility; test: Inhibition of immobility induced by an aversive situation (tail suspension) in mice; format: in vivo; details: Mus musculus, ip, read-out: Immobility test Tail hanging In mice ED50
Procedure: The test was described by R. D. Porsolt et al. (Arch.int.Pharmacodyn. 1987, 288: 11-30). Following suchg method, the compound to be studied was administered by ip route, and 30 minutes later mice were submitted to an aversive situation: they were tail suspended in the […] for 6 minutes. Mobility time and movements power were authomatically measured and registered in the above mentioned device. The potential antidepressant reduce the mice immobility time.

[4] = test system: immobility in forced swimming; test: Water despair test (forced swimming) in rats; format: in vivo; details: for Swimming Test Forced swimming In rats, activity at single dose: 40 mg/Kg; for ED50: read-out: Swimming Test Forced swimming In rats ED50
Procedure: The test was described by R. D. Porsolt et al. (Europ.J.Pharmacol. 1978, 47:379-391). […] The following day, 24 hours later, were let to swim in the water, but only for 5 minutes, and it was […] immobility time. The compounds to be studied were administered by ip route, 60 minutes before the test. The antidepressants reduce the immobility time. […] (Tablel).

[5] = test system: reserpine-induced ptosis; test: Inhibition of reserpine-induced ptosis in mice; format: in vivo; details: for ED50: Mus musculus, read-out: Inhibition test Reserpin ptosis In mice ED50
Procedure: It has been used the test described by S.Garattini et al. (Med.Exp. 1960, 3: 315-320). The antidepressant drugs inhibit the parpebral ptosis induced by reserpine ([…], i.p.) in mice.

[6] = test system: rat bladder contractions; test: Isovolumetric rhythmic bladder contractions in the anesthetized rat: amplitude and rate of the contractions; format: in vivo; details: for amplitude of the bladder contractions / rate of the bladder contractions: anesthetized rat, iv, 6.83, 13.7 and 27.3 mg/kg given as citrate, FIG. 2
Procedure: (1) Isovolumetric Rhythmic Bladder Contractions in the Anesthetized Rat
(a) Amplitude and Rate of the Contractions
Rat urinary bladder catheterized:
A pressure transducer is used to measure intravesical pressure (recording rate and amplitude of bladder contractions).
An infusion pump is used to fill bladder by 0.1 ml increments of saline until rhythmic contractions. After 15 minutes of constant interval bladder contractions, (R)-(+)-2-((1-methyl-1H-pyrazol-5-yl)(phenyl)methoxy-N-methylethanamine citrate in 6.83, 13.7, and 27.3 mg/kg dosages; (S)-(−)-2-((1-methyl-1H-pyrazol-5-yl)(phenyl)methoxy-N-methylethanamine citrate in 6.83, 13.7 and 27.3 mg/kg dosages; and oxybutinyn in a 1 mg/kg dose were administered by iv. Measurements were made before and then during 15 minute intervals after each administration.
Aditionally the compound 1, accoridng example 1, and its enantiomers were active in rat urinary incontinence test. They inhibited the amplitude of the rat bladder contractions. The compounds were evaluated in a model of cystometry in the anesthesized rat, looking for the effects on isovolumetric rhythmic bladder contractions. The method, which evaluatesthe effects of the test substances on lower urinary tract function, followed that described by Y. Kimura et al. ( Int. J. Urol. 1996, 3: 218-227).

[7] = test system: urinary incontinence secondary to overactive bladder or idiopathic urge incontinence; test: Clinical Study A, placebo controlled, 50 mg twice a day; format: in vivo, human; details: patients
Procedure: (§2) In a placebo controlled clinical trial 79 patients are randomized. Patients are from both genders with ages between 18 and 80 years (inclusive). They have urinary incontinence secondary to overactive bladder (detrusor hyperreflexia or instability) or idiopathic urge incontinence confirmed by the medical history and urodynamic study.
One group of patients is treated with 2-((1-methyl-1H-pyrazol-5-yl)(phenyl)methoxy-N-methylethanamine, 50 mg, twice a day, formulated as a tablet for oral administration. Another group is treated with placebo in matching tablets, twice a day, with administration by oral route. The patients are treated for 84 days.
Efficacy is measured by the difference from baseline in the mean number of leakages, micturitions, urgencies and voidings/24 hours as provided by a 7-day frequency-volume chart in the end of the study visit.
(§3) The primary efficacy analysis is based on the PP population. The treatment groups are compared with respect to the treatment effect, defined as the difference between treatment groups for changes from baseline in the number of voidings per 24 hours.
Additionally, the percentage of responders is compared based on an analysis of the number of patients having <8 voidings/day or experiencing complete dryness or both, and statistical significance determined.

[8] = test system: urinary incontinence secondary to overactive bladder or idiopathic urge incontinence; test: Clinical Study B, placebo controlled, 100 mg twice daily; format: in vivo, human; details: patients, 100 mg by oral route twice daily, 84 days
Procedure: as §2, with “135” for “79”
One group of patients is treated with 2-((1-methyl-1H-pyrazol-5-yl)(phenyl)methoxy-N-methylethanamine 100 mg formulated as an oral administration (twice daily). Another group is treated with placebo matching capsules, […], with administration by oral route. The patients are treated for 84 days.
Efficacy is measured by the difference from baseline in the mean number of voidings/24 hours as provided by a 7-day frequency-volume chart in the end of study visit.
as §3
Additionally, the percentage of responders is compared based on analysis of the number of patients having <8 voidings per day or experienced complete dryness or both., and statistical significance determined.

[9] = molecular target: T1, serotonin transporter (Rattus norvegicus, UniProt P31652); test: Serotonin transporter affinity, (3H)paroxetine binding in rat brain cortex; details: (3H)paroxetine radioligand, serotonin 100 μM non specific
T1 construct: from tissue; host or cells: rat brain cortex
T1 sequence (P31652 whole entry): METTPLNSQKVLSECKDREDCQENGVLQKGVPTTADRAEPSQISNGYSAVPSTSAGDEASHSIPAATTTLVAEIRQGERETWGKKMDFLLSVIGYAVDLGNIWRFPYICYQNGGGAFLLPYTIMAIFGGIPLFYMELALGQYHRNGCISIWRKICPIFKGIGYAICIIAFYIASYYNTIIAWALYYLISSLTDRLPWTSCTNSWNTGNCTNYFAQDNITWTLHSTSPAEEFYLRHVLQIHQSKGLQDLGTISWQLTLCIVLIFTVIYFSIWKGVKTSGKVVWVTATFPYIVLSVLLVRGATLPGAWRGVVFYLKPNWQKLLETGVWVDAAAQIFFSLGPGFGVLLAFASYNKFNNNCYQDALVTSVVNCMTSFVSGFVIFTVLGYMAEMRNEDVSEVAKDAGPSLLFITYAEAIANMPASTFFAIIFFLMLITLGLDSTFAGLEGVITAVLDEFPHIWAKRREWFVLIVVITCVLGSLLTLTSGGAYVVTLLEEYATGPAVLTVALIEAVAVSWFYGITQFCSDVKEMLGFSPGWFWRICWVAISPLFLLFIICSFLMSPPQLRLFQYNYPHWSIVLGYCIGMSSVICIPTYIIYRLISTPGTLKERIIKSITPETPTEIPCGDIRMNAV
Procedure: This affinity was studied in rat brain cortex, using (3H)paroxetine ([…]) as radioligand and 5-Hydroxytriptamine (serotonin)(100 μM) as non specific ligand.

[10] = anaesthetized Sprague-Dawley rats, 10 mg/kg i.v., vs basal
[11] = N-desmethyl metabolite 10 mg/kg
[12] = acetic acid 0.3% v/v infusion, 10 mg/kg i.v.
[13] = acetic acid 0.3% v/v infusion, 10 mg/kg i.v. acute
[14] = acetic acid-treated rat bladder, N-desmethyl metabolite 10 mg/kg
[15] = mice, i.p., 30 minutes before tail suspension for 6 minutes
[16] = 50 mg twice a day oral, 84 days, compared with placebo

For `CN(C)CCOC(c1ccccc1)c1ccnn1C` (centres unmarked) [Cizolirtine], the bladder contractility [1, 10] was “no alteration”, the bladder pressure [1, 10] was “significantly reduced” and the mean micturition volume [1, 10] was “significantly increased”. The micturition frequency [1, 10] was “trends to decrease”, the “volume required for first micturition” value [1, 10] was “augment” and the “mean volume of micturition” value [1] was “increased”. For the same compound, the number of micturitions [1] was “decreased”, the “volume for the first micturition” value [1] was “increased” and the “protection of the rat bladder against the acetic acid-induced hyperactivity” value (shortened to “protection of the rat bladder”) [2, 11] was “protected”. For the same compound, the “acetic acid-caused increase of bladder pressure” value [2, 12] was “reversed”, the “contractile capacity of the bladder” value [2, 12] was “Neither acetic acid nor cizolirtine significantly affected” and the “acetic acid-caused increase of micturition frequency” value [2, 13] was “significantly reduced”. For the same compound, the “acetic acid-caused reduction of micturition volume” value [2, 13] was “significantly reduced”, the number of micturitions [2, 14] was “reduced” and the “volume for the first micturition” value [2, 14] was “increased”. The ED50 [3, 15] was 17 mg/kg, the “Swimming Test Forced swimming In rats, activity at single dose” value ([4]; rats, i.p.) was “inactive” and the ED50 ([5]; mice, p.o., reserpine i.p.) was 26 mg/kg.
With `CN[C@H]1CC[C@@H](c2ccc(Cl)c(Cl)c2)c2ccccc21` [Sertraline] the ED50 [3, 15] was 8 mg/kg, the ED50 ([4]; Rattus norvegicus, ip, rats, i.p., 60 minutes before the test) was 28 mg/kg and the ED50 ([5]; mice, p.o., reserpine i.p.) was 17 mg/kg.
In the case of `CNCCO[C@@H](c1ccccc1)c1ccnn1C` [2-((S)-(1-methyl-1H-pyrazol-5-yl)(phenyl)methoxy)-N-methylethanamine], the “amplitude of the bladder contractions” value [6] is reported as “inhibited” and the “rate of the bladder contractions” value [6] is reported as “without modifying the rate”.
In the case of `CNCCCN1c2ccccc2CCc2ccccc21` [Desipramine], the inhibition at 30 mg/kg ([4]; Rattus norvegicus, ip, rats, i.p., 30 mg/Kg, read-out: Swimming Test Forced swimming In rats, I (inhibition) at single dose) is reported as 32%.
`CNCCOC(c1cccs1)c1ccnn1C.O=C(O)C(=O)O` (centres unmarked) [Compound 2, 2-((1-methyl-1H-pyrazol-5-yl)(thiophen-2-yl)methoxy)-N-methylethanamine; oxalate] was tested, and the ED50 [3, 15] was 33 mg/kg, the “Swimming Test Forced swimming In rats, activity at single dose” value ([4]; rats, i.p.) was “inactive” and the “Inhibition test Reserpin ptosis In mice, activity at single dose” value ([5]; mice, p.o., 40 mg/Kg) was “inactive”.
In the case of `CNCC[C@H](Oc1cccc2ccccc12)c1cccs1` [duloxetine], the “mean volume of micturition” value [1] is reported as “increased”, the number of micturitions [1] is reported as “decreased” and the “volume for the first micturition” value [1] is reported as “increased”. For the same compound, the “protection of the rat bladder” value [2, 11] was “protected”, the number of micturitions [2, 14] was “reduced” and the “volume for the first micturition” value [2, 14] was “increased”.
`CNCCO[C@H](c1ccccc1)c1ccnn1C` [(R)-2-((1-methyl-1H-pyrazol-5-yl)(phenyl)methoxy)-N-methylethanamine] was tested, and the “amplitude of the bladder contractions” value [6] was “inhibited” and the “rate of the bladder contractions” value [6] was “without modifying the rate”.
`CNCCOC(c1ccccc1)c1ccnn1C` (centres unmarked) [Compound 1, 2-((1-methyl-1H-pyrazol-5-yl)(phenyl)methoxy)-N-methylethanamine] was tested, and the “mean volume of micturition” value [1] was “increased”, the number of micturitions [1] was “decreased” and the “volume for the first micturition” value [1] was “increased”. For the same compound, the “protection of the rat bladder” value [2, 11] was “protected”, the “number of micturitions (sentence on FIG. 5)” value ([2]; acetic acid-treated rat bladder, N-desmethyl metabolite 10 mg/kg, FIG. 5) was “increased” and the number of micturitions [2, 14] was “reduced”. For the same compound, the “volume for the first micturition” value [2, 14] was “increased”, the “urge incontinence caused by overactive bladder, majority of efficacy variables” value ([7]; 50 mg twice a day by oral route, compared to placebo) was “clinically significant improvements” and the “mean number of daily leakages” value [7, 16] was “significant reduction”. The “mean number of daily micturitions” value [7, 16] was “significant reduction”, the “mean number of daily urgencies” value [7, 16] was “significant reduction” and the “mean number of daily voidings” value [7, 16] was “significant reduction”. The “amplitude of the rat bladder contractions, rat urinary incontinence test” value ([6]; cystometry in the anesthesized rat, method of Kimura et al.) was “inhibited”, the bladder overactivity [8] was “improve bladder overactivity” and the ED50 [3] was 17 mg/kg. For the same compound, the Ki [9] was 116 nM, the ED50 ([4]; Rattus norvegicus, ip) was 33 mg/kg and the ED50 [5] was 14 mg/kg.

— patent US20070021485A1, “Aryl (or heteroaryl) azolylcarbinols” (priority 2005, published 2007)
